Like-named read-outs stand apart in the source and are kept apart here.
Legend:
[1] = cited from earlier work
[2] = Chemiluminescence and fluorescence changes of probes toward O2•- (KO2): response, selectivity, LOD; details: for LOD against O2•-: KO2 0-1000 nM, LOD=3σ/k; for LOD against O2•- / fluorescent signal enhancement upon cleavage by O2•-: PBS (10 mM, pH 7.4, 10% DMSO), 37° C.; for chemiluminescence intensity increase after addition of O2•- / fluorescent signal enhancement upon cleavage by O2•-: probe 20 μM; for chemiluminescence intensity increase after addition of O2•-: O2•- 40 μM for 10 s, PBS pH 7.4, 37° C., at 480 / 520 / 580 / 540 nm; for fluorescent signal enhancement upon cleavage by O2•-: at ~486 / 532 / 582 / 542 nm
Method: The chemiluminescence and fluorescence changes of BOPDSu, BTPDSu, MBPDSu and MPDSu (20 μM) were recorded at different concentrations of RONS (40 μM) and other metal ions (100 μM). BOPDSu, BTPDSu, MBPDSu and MPDSu (20 μM) in phosphate buffered saline (PBS) buffer were treated in the presence of different RONS (40 μM), and metal ions (Mg^2+, Ca^2+ or Fe^2+, 100 μM) at 37° C.
The chemiluminescence signals were recorded at different concentrations of KO2 (0, 50, 100, 250, 500 and 1000 nM). Then, the limit of detection (LOD) of BOPDSu, BTPDSu, MBPDSu and MPDSu were calculated by chemiluminescence intensities based on the equation: LOD=3σ/k, where σ is the standard deviation of emission intensity of blank, and k is the slope of plot of emission intensities.

[3] = Chemiluminescence quantum yield in the presence of O2•-; format: physicochemical; details: probe 20 μM, O2•- 100 μM, PBS (10 mM, pH 7.4, 10% DMSO), 37° C.
Method: (§1) The chemiluminescence QYs of BOPDSu, BTPDSu, MBPDSu, and MPDSu (20 μM) were measured in the presence of O2^•- (100 μM) in PBS (10 mM, pH 7.4, 10% DMSO) at 37° C. The fluorescence QYs were determined by using Rhodamine B as a standard dye (QY 36%) in PBS (10 mM, pH 7.4) (X. Zhen et al., ACS Nano 2016, 10, 6400-6409). The fluorescence QY of AMPD was obtained from the literature (O. Green et al., ACS Cent. Sci. 2017, 3, 349-358).

[4] = Chemiluminescence kinetic studies (half-lives, CL emission) of caged probes in the presence of O2•-; format: physicochemical; details: caged probe after activation, in PBS (10% DMSO) at 37° C.
Method: FIG. […]
[…] The chemiluminescent intensities were plotted as a function of time.
[…] The chemiluminescence signal was recorded by the microplate reader to calculate half-lives of BTPDSu at different pHs.

[5] = Fluorescence quantum yield of activated probes; format: physicochemical; details: Rhodamine B as standard (QY 36%), PBS (10 mM, pH 7.4)
Method: as §1

dorsal skins of mice = test: Histopathologic, immunohistochemical and flow cytometry analyses of dorsal skins (IMQ psoriasis model); format: in vivo, BALB/c mice
Method: The control group was treated with Vaseline (50 mg/d) and the IMQ-treatment group was applied with IMQ cream (60 mg/d, 5%) once a day. […] Probe BTPDNe (10 uM, 1 mM in DMSO) was thoroughly mixed with Aquaphor (˜10 mg) and applied for psoriasis imaging, followed by poly(methyl methacrylate) microneedle treatment for 1 min. Then, chemiluminescent signals at different time-points (0, 3, 5, 10, 15, 30, 45 and 60 min) after probe-treatment were recorded using IVIS system bioluminescence with acquiring time of 180 s. Until the third day, all the mice were sacrificed to collect tissue and blood for further experiments (hematoxylin and eosin (H&E) staining and flow cytometry analysis) as described in Example 11.
The dorsal skin samples were separated and soaked in 4% paraformaldehyde (4% PFA) for 12 h and immersed in 30% sucrose solution. The skin samples were stained by hematoxylin and eosin (H&E). Then, the samples were flash-frozen by liquid nitrogen, immobilized with optimal cutting temperature compound, and section slices ([…]). The thickness of epidermis was observed under a microscope (Nikon ECLIPSE 80i microscope). APC-Ly6G, as a neutrophil marker, was used to stain neutrophil cells and DAPI was applied for cell nucleus staining. The immunofluorescence was observed by Nikon ECLIPSE 80i microscope.
After performing in vivo chemiluminescence imaging of neutrophils using BTPDNe in psoriasis-bearing mice with 2 day IMQ treatment, fresh section slices from dorsal skins were stained with Ly6G. Immunofluorescence imaging of slices with activated BTPDNe in green color was observed upon excitation at 405 nm and emission at 500-550 nm, while red color from Ly6G was observed upon excitation from 633-647 nm and emission at 660 nm. The immunofluorescence imaging was acquired by Nikon ECLIPSE 80i microscope.

[6] = uncaged, in PBS (10% DMSO), pH 7.4, 37° C.
[7] = uncaged, in PBS (5% DMSO), pH 7.4, 37° C.
[8] = uncaged, in PBS (10% DMSO), pH 10, 37° C.
[9] = uncaged, in PBS, pH 7.4, 10% FBS

## COC1(c2cc(O)cc3oc(=O)ccc23)OOC12C1CC3CC(C1)CC2C3 (stereo not drawn)
[1]; [6]
  CL Emission: 465 nm

## COC1(c2cccc(O)c2)OOC12C1CC3CC(C1)CC2C3 (stereo not drawn)
[1]; uncaged, in o-Xylene at 25° C.
  CL Emission: ~460 nm

## COC1(c2cccc(O)c2Cl)OOC12C1CC3CC(C1)CC2C3 (stereo not drawn)
[1]; [7]
  CL Emission: 470 nm
[1]; uncaged, in PBS (5% DMSO), pH 10, 37° C.
  CL Emission: 470 nm

## COC1(c2ccc(/C=C/C(=O)O)c(O)c2Cl)OOC12C1CC3CC(C1)CC2C3 (stereo not drawn)
[1]; [6]
  CL Emission: 510 nm
[1]; [8]
  CL Emission: 510 nm

## COC1(c2ccc(/C=C/c3ccc(C(=O)O)cc3)c(O)c2Cl)OOC12C1CC3CC(C1)CC2C3 (stereo not drawn)
[1]; [6]
  CL Emission: 535 nm
[1]; [8]
  CL Emission: 535 nm

## COC1(c2ccc(/C=C/c3ccc(CC(=O)O)cc3)c(O)c2Cl)OOC12C1CC3CC(C1)CC2C3 (stereo not drawn)
[1]; [6]
  CL Emission: 500 nm
[1]; [8]
  CL Emission: 500 nm

## COC1(c2ccc(/C=C/c3ccc(OCC(=O)O)cc3)c(O)c2Cl)OOC12C1CC3CC(C1)CC2C3 (stereo not drawn)
[1]; [6]
  CL Emission: 490 nm
[1]; [8]
  CL Emission: 490 nm

## COC1(c2cc(O)ccc2/C=C/C2=CC(=C(C#N)C#N)c3ccccc3O2)OOC12C1CC3CC(C1)CC2C3 (stereo not drawn)
[1]; [9]
  CL Emission: 660 nm

## COC1(c2cc(O)c(/C=C/C(=O)O)cc2/C=C/C2=CC(=C(C#N)C#N)c3ccccc3O2)OOC12C1CC3CC(C1)CC2C3 (stereo not drawn)
[1]; [9]
  CL Emission: 690 nm

## CC(=O)Oc1cc(C23OCC(C)(C)C2(C(C)(C)C)OO3)cc2ccc(=O)oc12 (stereo not drawn)
[1]; caged, after activation, in DMSO with 170 μM TBAF at 25° C.
  CL Emission: 470 nm

## COC1(c2ccc(/C=C/C#N)c(OC(=O)c3ccccc3P(c3ccccc3)c3ccccc3)c2Cl)OOC12C1CC3CC(C1)CC2C3 (stereo not drawn)
[1]; caged, after activation, in 20 mM HEPES or PBS (pH 7.4), 1% DMSO
  CL Emission: 525 nm

## COC1(c2ccc(/C=C/C#N)c(OCc3ccc4c(c3)C(=O)C(=O)N4)c2Cl)OOC12C1CC3CC(C1)CC2C3 (stereo not drawn)
[1]; caged, after activation, in 20 mM HEPES (pH 7.4), 1% DMSO
  CL Emission: 525 nm

## 1-methylpyridinium-benzothiazole-phenoxyl-dioxetane [MBPDSu]
[2]
  LOD against O2•-: 6.3 nM
  chemiluminescence intensity increase after addition of O2•-: 2590 times
  fluorescent signal enhancement upon cleavage by O2•-: 40.5 folds
[3]
  ΦCl, chemiluminescence QY: 0.045 einsteins/mol
[4]
  CL Emission: 580 nm

## COC(=O)c1ccc(-c2nc3ccccc3o2)c(O)c1 [ABOPD]
[5]
  ΦFl, fluorescence QY of activated probe: 33.0%

## COC(=O)c1ccc(-c2nc3ccccc3s2)c(O)c1 [ABTPD]
[5]
  ΦFl, fluorescence QY of activated probe: 24.1%

## COC(=O)c1cc(O)c(-c2nc3ccccc3s2)cc1/C=C/c1cc[n+](C)cc1.[I-] [AMBPD]
[5]
  ΦFl, fluorescence QY of activated probe: 7.5%

## CC(C)Cn1cnc2c(N)nc3ccccc3c21 [IMQ, Imiquimod]
Dorsal skins of mice; day 2, flow cytometry
  population of NE-expressing neutrophils in skins relative to CsA-treated group: 2.62 times
  population of NE-expressing neutrophils in skins relative to control group: 2.03 times
Dorsal skins of mice; dorsal skins, histology and immunohistochemistry, vs control group
  skin thickness and neutrophil (CD11c+, Ly6G+) population / infiltration: increased thickness and neutrophil (CD11c+, Ly6G+) infiltration

## COC(=O)/C=C/c1ccc(C2(OC)OOC23C2CC4CC(C2)CC3C4)c(Cl)c1O (stereo not drawn) [drawing 49]
[1]; [6]
  CL Emission: 540 nm
[1]; [8]
  CL Emission: 550 nm

## COC(=O)/C=C/c1ccc(C2(OC)OOC23C2CC4CC(C2)CC3C4)c(Cl)c1O (stereo not drawn) [drawing 50]
[1]; [7]
  CL Emission: 540 nm

## COC1(c2ccc(/C=C/C#N)c(O)c2Cl)OOC12C1CC3CC(C1)CC2C3 (stereo not drawn) [drawing 51]
[1]; [7]
  CL Emission: 525 nm

## COC1(c2ccc(/C=C/C#N)c(O)c2Cl)OOC12C1CC3CC(C1)CC2C3 (stereo not drawn) [drawing 52]
[1]; [6]
  CL Emission: 525 nm
[1]; [8]
  CL Emission: 525 nm

## benzoxazole-phenoxyl-dioxetane [BOPDSu]
[2]
  LOD against O2•-: ~5.7 nM
  chemiluminescence intensity increase after addition of O2•-: 3291 times
  fluorescent signal enhancement upon cleavage by O2•-: 45.3 folds
[3]
  ΦCl, chemiluminescence QY: 0.189 einsteins/mol

## methyl acrylate-phenoxyl-dioxetane [MPDSu, reference compound]
[2]
  LOD against O2•-: 13.6 nM
  chemiluminescence intensity increase after addition of O2•-: 2624 times
  fluorescent signal enhancement upon cleavage by O2•-: 11.2 folds
[3]
  ΦCl, chemiluminescence QY: 0.023 einsteins/mol

— patent publication US20240277873A1, “ULTRABRIGHT […] PROBES FOR DETECTION AND IMAGING” (Nanyang Technological University, priority 2021, published 2024)
